Data from patent US20150306090A1, “ORALLY ADMINISTERED MEDICAL COMPOSITION” (ASTELLAS PHARMA INC., priority 2012, published 2015).
Converted amounts (≈) assume the structure as drawn.

Assay: physchem
Format: physicochemical
Excerpt: Further, the current product (Vesicare (registered trademark)) has been placed on the market, as a drug-immediate-release formulation. Furthermore, although the active ingredient is not the same, a bi-layered tablet comprising a modified release portion containing tamsulosin or a pharmaceutically acceptable salt thereof, and an immediate release portion containing solifenacin or a pharmaceutically acceptable salt thereof, is known (Patent literature 7).

## O=C(O[C@H]1CN2CCC1CC2)N1CCc2ccccc2[C@@H]1c1ccccc1 [solifenacin, (R)-quinuclidin-3-yl (S)-1-phenyl-1,2,3,4-tetrahydroisoquinoline-2-carboxylate]
pH 6.8, aqueous buffer
  solubility: 430 mg/mL (≈ 1190 mM)
water
  solubility: 610 mg/mL (≈ 1680 mM)
